Assay results from patent US12617767B2, “Crystalline forms of somatostatin modulators” (Crinetics Pharmaceuticals, Inc., priority 2019, dated 2026).

Test: Dynamic Vapor Sorption (DVS)
Type: physicochemical
Procedure: Dynamic Vapor Sorption (DVS) was done using a DVS Intrinsic 1. The sample is loaded into a sample pan and suspended from a microbalance. A typical sample mass for DVS measurement is 25 mg. Nitrogen gas bubbled through distilled water provides the desired relative humidity.
A typical measurement comprises the steps: • 1—Equilibrate at 50% RH • 2-50% to 2%. (50%, 40%, 30%, 20%, 10% and 2%) • a. Hold minimum of 5 mins and maximum of 240 minutes at each humidity. The pass criteria is less than 0.002% change • 3-2% to 95% (2%, 10%, 20%, 30%, 40%, 50%, 60%, 70%, 80%, 90%, 95%) • a. Hold minimum of 5 mins and maximum of 240 minutes at each humidity. The pass criteria is less than 0.002% change • 4-95% to 2% (95%, 80%, 70%, 60%, 50%, 40%, 30%, 20%, 10%, 2%) • a. Hold minimum of 5 mins and maximum of 240 minutes at each humidity. The pass criteria is less than 0.002% change • 5-2% to 50% (2%, 10%, 20%, 30%, 40%, 50%) • a. Hold minimum of 5 mins and maximum of 240 minutes at each humidity. The pass criteria is less than 0.002% change Dynamic Vapor Sorption Isotherm Plots of Solid Forms of Compound A⋅2MSA

## CS(=O)(=O)O.CS(=O)(=O)O.N#Cc1cccc(-c2ccc3ncc(-c4cc(F)cc(F)c4)c(N4CCC(N)CC4)c3c2)c1O [Pattern B, 3-(4-(4-aminopiperidin-1-yl)-3-(3,5-difluorophenyl)quinolin-6-yl)-2-hydroxybenzonitrile dimesylate]
2-95% RH, dimesylate
  XRPD form after the DVS experiment: no change in form
Between 2% and 95% Relative Humidity (RH), dimesylate
  reversible water uptake (DVS): 3.2 % w/w
Over the 2-95% RH range
  total mass difference (DVS): 3.2 wt. %
Range of 10-80% RH
  mass change (DVS): 1.3 wt. %
